Measured values: patent US20250006331A1, “QUANTITATIVE SYSTEMS PHARMACOLOGY METHODS FOR IDENTIFYING THERAPEUTICS FOR DISEASE STATES” (UNIVERSITY OF PITTSBURGH-OF THE COMMONWEALTH SYSTEM OF …, priority 2021, published 2025)
Entries after “also recorded” stand apart in the source; their conditions may differ.

Key:
[1] = observational trial of adult males [Vega, G. L., et al. 2008]; cited from earlier work
LAMPS models [2] = assay: LAMPS model functionality (albumin and blood urea nitrogen secretion); format: cell-based, human; conditions: 10-day time course, vs vehicle control, 10 μM OCA, 30 μM PGZ; for Albumin curves / Blood urea nitrogen curves: NAFLD disease media, 10 μM TGZ, Vorinostat 1.7 or 5 μM, AS601245 1 or 3 μM, pioglitazone + vorinostat combination
Text: (§1) LAMPS cell sources and cell culture. A single lot of selected cryopreserved primary human hepatocytes (lot #Hu1960) with >90% viability and re-plating efficiency post-thaw were purchased from ThermoFisher. A single lot of selected cryopreserved primary human liver sinusoidal endothelial cells (LSEC; lot #: HL160019) were purchased from LifeNet Health (formerly Samsara Sciences; Virginia Beach, VA.). The human monoblast cell line, THP-1, used to generate Kupffer cells, was purchased from ATCC (Rockville, MD). LX-2 human stellate cells were acquired from Sigma Millipore (Billerica, MA). The LX-2 cell is an immortalized human hepatic stellate cell that constitutively expresses key receptors regulating hepatic fibrosis, and proliferates in response to PDGF, a prominent mitogen contributing to liver fibrosis (Bonner 2004, Xu, Hui et al. 2005).
Primary human hepatocytes were thawed following the manufacturer's recommendations using Cryopreserved Hepatocyte Recovery Medium (CHRM; ThermoFisher) and were initially cultured in hepatocyte plating media (HPM) containing Williams E medium (11.5 mM glucose) supplemented with 5% fetal bovine serum, […] penicillin-streptomycin and 2 mM L-glutamine. For perfusion in LAMPS models, cells were maintained in normal fasting (NF), early metabolic syndrome (EMS), or late metabolic syndrome (LMS) media. The description of components of these media types is detailed in the Metabolic Syndrome Media section below. LSECs were thawed and expanded in endothelial cell basal medium-2 (EBM-2) supplemented with the endothelial growth medium-2 (EGM-2) supplement pack (Lonza; Alpharetta, GA; #CC-4176). THP-1 cells were cultured in suspension in RPMI-1640 medium (ThermoFisher) supplemented with 10% fetal bovine serum (FBS; ThermoFisher), 100 μg/mL penicillin streptomycin (ThermoFisher), and 2 mM L-glutamine (ThermoFisher). THP-1 cells were differentiated into mature macrophages by treatment with 200 ng/mL phorbol myristate acetate (Sigma Aldrich) for 48 h. Differentiated THP-1 monocytes release human tumor necrosis factor alpha (TNF-α) and interleukin-6 (IL-6) in response to LPS treatment, a condition reported to induce the immune mediated liver toxic response in in vitro models (Jang, Choi et al. 2006, Kostadinova, Boess et al. 2013). LX-2 cells were cultured in Dulbecco's Modified Eagle Medium (DMEM; ThermoFisher) supplemented with 2% FBS and 100 μg/mL penicillin streptomycin.
Metabolic syndrome media. We developed medias that were designed to create disease progression from Normal Fasting (NF) to early metabolic syndrome (EMS or NAFLD) and late metabolic syndrome (LMS or T2D) over a two-week period in the LAMPS platform (Mohammed 2021). For the studies described here, we used both NF and EMS media formulations. […] We then adjusted these components to reflect the pathophysiological conditions as described below (Alford, Bloodm et al. 1977, Kuhl 1977, Kim, Kim et al. 2000, Chitturi, Abeygunasekera et al. 2002, de Almeida, Cortez-Pinto et al. 2002, Valencia, Marin et al. 2002, Edgerton, Ramnanan et al. 2009, Winnick, An et al. 2009).
Early Metabolic Syndrome (EMS) Media: Early metabolic syndrome (EMS) medium was derived from the NF media formulation with the following modifications: 11.5 mM glucose, 10 nM insulin, […] glucagon, 200 μM sodium oleate and 100 μM palmitic acid (Sigma).
(§2) LAMPS model assembly and maintenance. […] The experimental setup workflow is described in the Supplement.

LAMPS models [3] = assay: LAMPS hepatocellular steatosis (LipidTOX labeling); format: cell-based, human; conditions: for Effect on steatosis: LAMPS NAFLD/MAFLD model, summary statement; for Hepatocellular steatosis / lipid accumulation (LipidTOX intensity): NAFLD disease media, day 10, vs vehicle control, 10 μM TGZ, Vorinostat 1.7 or 5 μM, AS601245 1 or 3 μM, pioglitazone + vorinostat combination
Experimental: as §2
Steatosis measurements. Steatosis measurements were performed using HCS LipidTOX Deep Red Neutral Lipid Stain (ThermoFisher) after completion of the experimental time course (Day 10) in LAMPS models as previously described (Lee-Montiel, George et al. 2017) and are outlined in detail in the Supplemental Methods section.

[4] = system: LX-2 human stellate cells; assay: LAMPS stellate cell activation (α-smooth muscle actin staining); format: cell-based; conditions: for Effect on stellate cell activation: LAMPS NAFLD/MAFLD model, summary statement; for Stellate cell activation (α-SMA intensity): LAMPS, 10 μM OCA, 30 μM PGZ
Text: as §1, §2
Stellate cell activation. Staining for LX-2 cell expression of α-smooth muscle actin (α-SMA) was performed after completion of the experimental time course (Day 10) in LAMPS models as previously described (Vernetti, Senutovitch et al. 2016, Li, George et al. 2018) and are outlined in detail in the Supplemental Methods section.

[5] = system: Pro-collagen 1A1 and TIMP-1; assay: LAMPS secretion of pro-fibrotic markers (ELISA); format: cell-based, human; conditions: for Effect on secreted pro-fibrotic markers / fibrosis: LAMPS NAFLD/MAFLD model, summary statement; for Decrease in secretion of the pro-fibrotic marker Pro-Col 1a1: 10 μM TGZ vs vehicle, decrease is not significant; for Decrease in secretion of the pro-fibrotic marker Pro-collagen 1a1: 30 μM PGZ vs vehicle, decrease not statistically significant
Text: as §2

LAMPS models [6] = assay: LAMPS cytotoxicity (lactate dehydrogenase secretion); conditions: for Lactate dehydrogenase curves: 10-day time course, vs vehicle control, 10 μM OCA, 30 μM PGZ, 10 μM TGZ
Experimental: LAMPS model assembly and maintenance. LAMPS studies were carried out as previously described (Vernetti, Senutovitch et al. 2016, Lee-Montiel, George et al. 2017, Miedel, Gavlock et al. 2019, Mohammed 2021) with modification to include the use of human primary liver sinusoidal endothelial cells (LSECs). A single chamber commercial microfluidic device (HAR-V single channel device, SCC-001, Nortis, Inc. Seattle, WA) was used for LAMPS studies. For all steps involving injection of media and/or cell suspensions into LAMPS devices, 100-150 μl per device was used to ensure complete filling of fluidic pathways, chamber and bubble traps. The percentages of hepatocytes, THP-1, LSEC, and LX-2 cells are consistent with the scaling used in our previously published models (Vernetti, Senutovitch et al. 2016, Lee-Montiel, George et al. 2017, Miedel, Gavlock et al. 2019, Mohammed 2021). For the studies described here, LAMPS models were set up and maintained for 10 days under flow.
Secretome measurements. Efflux media from LAMPS devices was collected on days 2,4,6,8, and 10 to measure albumin, blood urea nitrogen, and lactate dehydrogenase. […] The CytoTox 96 for lactate dehydrogenase (LDH) and the urea nitrogen test were purchased from Promega (Madison, WI) and Stanbio Laboratory (Boerne, TX), respectively. […] All efflux measurements were carried out according to the manufacturer's protocol and obtained as described previously (Vernetti, Senutovitch et al. 2016, Lee-Montiel, George et al. 2017, Li, George et al. 2018, Miedel, Gavlock et al. 2019).
LAMPS models were maintained for 10 days in MAFLD disease media containing either the indicated concentration of drug or DMSO vehicle control. We determined drug concentrations to test in LAMPS models guided by the CMap database and by cytotoxicity testing in primary hepatocytes (Table S8). […] We examined a panel of metrics to monitor disease-specific phenotypes including model functionality (albumin and blood urea nitrogen production) and cytotoxicity (lactate dehydrogenase secretion), hepatocellular steatosis (LipidTOX Lipid Stain from ThermoFisher Scientific labeling), stellate cell activation (α-smooth muscle actin staining), and the production of a panel of pro-inflammatory cytokines and fibrotic markers (Pro-collagen 1A1 and TIMP-1) (Mohammed et. al, 2021).

[7] = system: TNF-α, IL-6, IL-8, IL-1α and MCP-1; assay: LAMPS production of pro-inflammatory cytokines; format: cell-based, human; conditions: for Inflammatory cytokine production: LAMPS
Text: as §2

[8] = NAFLD disease media, day 10, vs vehicle control, 10 μM TGZ, Vorinostat 1.7 or 5 μM, pioglitazone + vorinostat combination
[9] = LAMPS, NAFLD disease media, 10 days, vs vehicle, 10 μM OCA, 30 μM PGZ, 10 μM TGZ, Vorinostat 1.7 or 5 μM, pioglitazone + vorinostat combination
[10] = LAMPS, NAFLD disease media, 10 days, 10 μM OCA, 30 μM PGZ
[11] = EMS media, vorinostat 1.7 or 5 μM, pioglitazone 30 μM + vorinostat 1.7 or 5 μM
[12] = EMS media, day 10, vs vehicle, vorinostat 1.7 or 5 μM, pioglitazone 30 μM + vorinostat 1.7 or 5 μM
[13] = LAMPS, EMS media, 10 days, vs vehicle, 10 μM OCA, 30 μM PGZ, vorinostat 1.7 or 5 μM, pioglitazone 30 μM + vorinostat 1.7 or 5 μM
[14] = NAFLD disease media, day 10, vs vehicle control, Vorinostat 1.7 or 5 μM, AS601245 1 or 3 μM, pioglitazone + vorinostat combination
[15] = LAMPS, EMS media, 10 days, 10 μM OCA

Structure (SMILES): C[C@]12COC(=O)C[C@@H]1CC[C@@H]1[C@@H]2CC[C@@]2(C)[C@H]1CC[C@]2(C)O [oxandrolone]
- Hepatic ketogenesis [1]: promoted hepatic ketogenesis

Structure (SMILES): Cc1c(C)c2c(c(C)c1O)CCC(C)(COc1ccc(CC3SC(=O)NC3=O)cc1)O2 (stereo not shown) [TGZ, troglitazone]
- Albumin curves (LAMPS models [2]): no significant differences
- Blood urea nitrogen curves (LAMPS models [2]): no significant differences
- Effect on steatosis (LAMPS models [3]): reduced
- Hepatocellular steatosis / lipid accumulation (LipidTOX intensity) (LAMPS models [3]; LAMPS, 10 μM OCA, 30 μM PGZ): significant decrease
- Effect on stellate cell activation [4]: reduced
- Stellate cell activation (α-SMA intensity) [4, 8]: significant decrease
- Effect on secreted pro-fibrotic markers / fibrosis [5]: reduced steatosis but not fibrosis markers; also recorded: no significant effect
- Secreted levels / production of TIMP-1 [5, 9]: no significant change
- Decrease in secretion of the pro-fibrotic marker Pro-Col 1a1 [5, 10]: ~20%
- Lactate dehydrogenase curves (LAMPS models [6]; NAFLD disease media): no significant differences

Structure (SMILES): O=C(CCCCCCC(=O)Nc1ccccc1)NO [Vorinostat, suberoylanilide hydroxamic acid]
- Albumin secretion profiles (LAMPS models [2]; [11]): no significant differences
- Blood urea nitrogen secretion profiles (LAMPS models [2]; [11]): no significant differences
- Albumin curves (LAMPS models [2]): no significant differences
- Blood urea nitrogen curves (LAMPS models [2]): no significant differences
- Effect on steatosis (LAMPS models [3]): without an impact; also recorded: without significant amelioration; also recorded: without an appreciable effect
- Steatosis / lipid accumulation (LipidTOX intensity) (LAMPS models [3]; LAMPS, EMS media, day 10, vs vehicle, 10 μM OCA, 30 μM PGZ, vorinostat 1.7 or 5 μM, pioglitazone 30 μM + vorinostat 1.7 or 5 μM): no significant effect
- Hepatocellular steatosis / lipid accumulation (LipidTOX intensity) (LAMPS models [3]; LAMPS, 10 μM OCA, 30 μM PGZ): no effect
- Effect on stellate cell activation [4]: robustly reduced
- Stellate cell activation (α-SMA intensity) [4, 12]: significant decrease
- Stellate cell activation (α-SMA intensity) [4, 8]: significant decrease
- Effect on secreted pro-fibrotic markers / fibrosis [5]: robustly mitigated; also recorded: robustly reduced; also recorded: significant inhibition
- Secreted levels / production of TIMP-1 [5, 13]: significant decrease
- Secreted levels / production of the pro-fibrotic marker Pro-Col 1a1 [5, 13]: significant decrease
- Secreted levels / production of TIMP-1 [5, 9]: significant decrease
- Production of the pro-fibrotic marker pro-collagen 1a1 ([5]; LAMPS, NAFLD disease media, day 10, vs vehicle control, Vorinostat 1.7 or 5 μM, pioglitazone + vorinostat combination): significant decrease
- Effect on inflammatory markers / inflammation ([7]; LAMPS NAFLD/MAFLD model, summary statement): robustly mitigated; also recorded: robustly reduced; also recorded: significant inhibition
- Inflammatory cytokine production [7, 12]: significant decrease
- Inflammatory cytokine production [7, 14]: significant decrease
- LDH secretion (LAMPS models [6]; EMS media, days 8 and 10, 5 μM vorinostat vs vehicle control): significant decrease
- LDH secretion (LAMPS models [6]; NAFLD disease media, days 8 and 10, 5 μM Vorinostat vs vehicle control): significant decrease

Structure (SMILES): N#CC(c1ccnc(NCCc2cccnc2)n1)c1nc2ccccc2s1 (stereo not shown) [AS601245]
- Albumin curves (LAMPS models [2]): no significant differences
- Blood urea nitrogen curves (LAMPS models [2]): no significant differences
- Hepatocellular steatosis / lipid accumulation (LipidTOX intensity) (LAMPS models [3]; LAMPS, 10 μM OCA, 30 μM PGZ): no effect
- Inflammatory cytokine production [7, 14]: dose-dependent increase

Structure (SMILES): CCc1ccc(CCOc2ccc(CC3SC(=O)NC3=O)cc2)nc1 (stereo not shown) [PGZ, pioglitazone]
- Effect on secreted pro-fibrotic markers / fibrosis [5]: no significant effect
- Decrease in secretion of the pro-fibrotic marker Pro-collagen 1a1 [5, 15]: ~20%
- Decrease in secretion of the pro-fibrotic marker Pro-Col 1a1 [5, 10]: ~20%
- Lactate dehydrogenase curves (LAMPS models [6]; NAFLD disease media): no significant differences

Structure (SMILES): CC[C@H]1[C@@H](O)[C@@H]2[C@H](CC[C@]3(C)[C@@H]([C@H](C)CCC(=O)O)CC[C@@H]23)[C@@]2(C)CC[C@@H](O)C[C@@H]12 [OCA, obeticholic acid]
- Effect on secreted pro-fibrotic markers / fibrosis [5]: no significant effect
- Decrease in secretion of the pro-fibrotic marker Pro-collagen 1a1 [5, 15]: ~20%
- Decrease in secretion of the pro-fibrotic marker Pro-Col 1a1 [5, 10]: ~20%
- Lactate dehydrogenase curves (LAMPS models [6]; NAFLD disease media): no significant differences
